Patent US20220290196A1, “GENETICALLY ENGINEERED MICROBES AND BIOSYNTHETIC METHODS” (The Regents of the University of California, priority 2019, published 2022)
Several values for one entry are separate records, joined by “and”; a condition that tells them apart may be missing. Identical values can stand only once. Values belong to the molecule of their own block, whether it stands above or below them.

Legend:
[1] = test system: Tar14, Tar13, and Tar13/16; assay: In vitro assays with Tar14, Tar13, and Tar13/16 (FIG. 20 summary); format: biochemical, Saccharomonospora sp. CNQ-490; conditions: Tar14, Tar13, Tar13/16
[2] = Deformylation of N-formyl-L-4-Cl-Kyn on purification/lyophilization; format: physicochemical; conditions: mildly acidic purification conditions / after lyophilization
Protocol: N-formyl-L-4-Cl-kynurenine (10): The Tar13 biochemical assay was scaled to 57.6 mL (six 96 well plates with 100 μL reaction mixture as described in section 8 in each well). After overnight incubation, the assays were pooled together, frozen on dry ice, and lyophilized. The dried sample was redissolved in a 4000 μL of water/methanol (1/1) mixture and subjected to purification by preparative HPLC using method 8. Organic solvent from combined fractions (checked by direct injection into the Bruker Ion Trap mass spectrometer) was removed by evaporation at reduced pressure and the aqueous sample was frozen following by lyophilization. Due to the presence of closely eluting impurities, further purification step using semi-preparative HPLC and method 6 was used. The target peak was collected manually. After removing organic solvent under reduced pressure and lyophilization, the desired product 10 (1.8 mg) was obtained.

Tar13 = Tar13 in vitro assay with substrate analogues; format: biochemical, Saccharomonospora sp. CNQ-490
Protocol: Tar13. Upon testing different reaction compositions (buffers, concentration of ascorbic acids and hemin, pH), the following conditions were found as optimal:
(§1) Buffer: up to 50 μL (50 mM Tris, 500 mM NaCl 10% glycerol, pH 8.0)
(§2) In a separate Eppendorf tube premix:
Add substrate solution to the enzyme mixture to start reaction
When Tar13 was directly added to the enzyme reaction, immediate protein precipitation occurred. The same was observed if the enzyme was not pre-mixed with hemin and ascorbic acid. Full substrate conversion was achieved after overnight incubation at 30° C. in 1.5 mL Eppendorf tube with shaking. The reactions were quenched by addition of equal volume of HPLC grade methanol.

Tar14 = Tar14 in vitro halogenation assay with substrate analogues; format: biochemical, Saccharomonospora sp. CNQ-490
Protocol: Tar14. Tar14 reaction mixture of total volume 100 μL in 1.5 mL Eppendorf tube was composed of the following components:
Buffer (10 mM Tris, 10% glycerol, pH 7.6): up to 100 μL

[3] = test system: S. coelicolor M1146-tarM1Δtar14; assay: Feeding/chemical complementation experiment, incorporation into taromycin; format: cell-based, Streptomyces coelicolor; conditions: incorporation at residue-1 and residue-13; analogue fed at 2 mM; judged by comparison to taromycin yields by S. coelicolor M1146-tarM1
Protocol: For taromycin production, seed culture in TSBY medium was inoculated with corresponding S. coelicolor spore suspension (collected from fresh SFM plates) and was cultured for 36-48 h till a dense creamy consistency was reached. Kanamycin at 10 μg mL^−1 final concentration was added to the seed cultures of S. coelicolor M1146-pCAP01-tarM1 and S. coelicolor M1146-pCAP01-tarM1Δtar14. Inocula of seed culture (5%, v/v) were used for fermentation in MP medium (1% glucose, 1% soluble starch, 0.4% peptone, 0.3% yeast extract, 0.3% soytone, 0.2% meat extract, 0.2% CaCO3, and 0.5% NaCl, pH 7.2). Fermentation was carried out at 30° C. and 220 rpm in a rotary incubator for 6 days. A maximum of 40 mL of production medium was added into 250 mL flask with metal springs.
S. coelicolor M1146-pCAP01-tarM1Δtar14 cultures were grown as described in Section 3 for taromycin production. After 18 and 36 h of cultivation, tryptophan analogues in the form of water suspension were added to the production cultures to a final concentration 2 mM. The cultures were further incubated for 5 days before extraction and further analysis by LC-HRMS^n. All experiments were repeated independently twice with three replicates for each compound. In parallel, cultures of S. coelicolor M1146-pCAP01-tarM1 and S. coelicolor M1146-pCAP01-tarM1Δtar14 were grown as controls.
To analyze production of taromycins and analogues, solid phase extraction of the culture supernatants was performed with Amberlite XAD-16 resin (SIGMA). For analytical purposes around 1 g of washed and equilibrated resin was added to 20 mL of supernatant followed by shaking for 30-60 min. Samples were then spun down and decanted. The resin was washed twice with water (15 mL), before elution with methanol (5 mL). The methanol extracts from the resin were used for LCMS analysis without additional concentration step.

Tar16 = assay: Coupled Tar13/Tar16 assay (Tar16 substrate generated in situ by Tar13); format: biochemical, Saccharomonospora sp. CNQ-490; conditions: substrates generated in situ by Tar13; Tar16 10 μM; overnight at 30° C.
Protocol: Coupled Tar13 Tar]6. The reaction mixture of total volume 100 μL in 1.5 mL Eppendorf tube was composed of the following components:
Buffer: up to 50 μL (50 mM Tris, 500 mM NaCl 10% glycerol, pH 8.0
Substrate (for Tar13 enzyme): 0.25 μM
as §2
Buffer: up to […] (50 mM Tris, 500 mM NaCl 10% glycerol, pH 8.0)
Add substrate solution to the enzyme mixture to start reaction.
No difference in conversion was observed when Tar16 was added into the assay mixture either together with Tar13, or after 2 h of incubation at 30° C., or after overnight incubation at 30° C., followed by another 4 h of incubation after addition of Tar16. Therefore, for convenience, all components were mixed at the same time point, the reactions were incubated at 30° C. overnight, after which the assays were quenched by addition of equal volume of HPLC grade methanol.

Tar13 Tar14 Tar16 = assay: One-pot Tar13/Tar14/Tar16 conversion of L-Trp to L-4-Cl-Kyn; format: biochemical, Saccharomonospora sp. CNQ-490
Protocol: Buffer: up to 100 μL (50 mM Tris, 500 mM NaCl (or KBr) 10% glycerol, pH 8.0)
(§3) Tar14 (added last): 2.5 μM
Incubate 45 min at 30° C., followed by addition of premixed:
Buffer: up to 50 μL (50 mM Tris, 500 mM NaCl (or KBr) 10% glycerol, pH 8.0)
The reactions were incubated at 30° C. overnight, after which the assays were quenched by addition of equal volume of HPLC grade methanol and frozen at −70° C. till further analysis by LCMS.

[4] = substrate: N[C@@H](Cc1c[nH]c2ccccc12)C(=O)O; assay: Kinetic characterization of Tar14-catalyzed chlorination of L-tryptophan; format: biochemical, Saccharomonospora sp. CNQ-490; conditions: other: Tar14, L-Trp chlorination, 30° C., pH 7.6
Excerpt: To determine kinetic parameters for Tar14-catalyzed chlorination of L-tryptophan, phenol was first tested as an internal standard for quantification of the product (L-6-chlorotryptophan) formation. An HPLC method that gives separation of substrate/product/internal standard peaks (method 4) was developed (FIGS. 10A and 108). It was also verified that activity of Tar14 was not affected by the presence of phenol in the reaction mixture. Using commercial standard of L-6-chlorotryptophan and phenol mixed at known concentrations, a calibration curve was built (FIGS. 10A and 10B).
Tar14 reaction mixture of total volume 100 μL in 1.5 mL Eppendorf tube was composed of the following components:
Buffer (10 mM Tris, 10% glycerol, pH 7.6) up to 100 μL
as §3
(§4) The reactions were incubated at 30° C. for 5, 10, 25, 45, 60, 120, and 240 min, after which the assays were quenched by addition of equal volume of HPLC grade methanol and frozen at −70° C. till further analysis by HPLC. All assays were performed in triplicates for each substrate concentration and every time point. In parallel, for each time point and substrate concentration, assays with no added phenol and with no added enzyme were used as controls.
Product formation was quantitated by calculating the ratio of peak areas of product to internal standard and fitting that value to a calibration curve. […]

[5] = substrate: N[C@@H](Cc1c[nH]c2cc(Cl)ccc12)C(=O)O; assay: Kinetic characterization of Tar13-catalyzed oxidation of L-6-Cl-tryptophan; format: biochemical, Saccharomonospora sp. CNQ-490; conditions: other: Tar13, L-6-Cl-Trp, 30° C., pH 8.0
Protocol: To determine kinetic parameters for Tar13-catalyzed oxidation of L-6-Cl-tryptophan, the following reaction conditions were used:
as §1, §2
as §4, with “The enzyme mixture was added to the substrate solution to start the reactions. The” for “The”, “15, 30” for “25, 45, 60, 120, and 240”, “added” for “added phenol and with no added”, “controls. Prior HPLC analysis (method 5), L-tryptophan was added to the quenched reaction mixtures as an internal standard for quantification.” for “controls.”
Product formation was quantitated by calculating decrease of the area of the remaining substrate in comparison to the substrate peak area in the control with no enzyme added, and the ratio of peak areas to internal standard were fitted into a calibration curve to determine product concentrations.

Conversion by any of the enzymes [1]: not converted by any of the enzymes
Molecule: N[C@@H](Cc1ccc(O)cc1)C(=O)O [Compound 23, L-tyrosine]

Molecule: NCCc1c[nH]c2ccc(O)cc12 [Compound 22, serotonine]
Conversion by any of the enzymes [1]: not converted by any of the enzymes

Stability: deformylation to L-4-Cl-Kyn (1) [2]: partial deformylation
Molecule: N[C@@H](CC(=O)c1ccc(Cl)cc1NC=O)C(=O)O [Compound 10, N-formyl-L-4-Cl-kynurenine]

Conversion by any of the enzymes [1]: not converted by any of the enzymes
Molecule: N[C@@H](Cc1ccccc1)C(=O)O [Compound 24, L-phenylalanine]

Molecule: N[C@@H](Cc1c[nH]c2ccccc12)C(=O)O [Compound 4, L-tryptophan]
Conversion/activity as substrate for Tar13 (Tar13): only trace activity | Enzyme assays, % conversion, Tar13 (Tar13; substrate 0.25 mM, Tar13 20 μM, overnight at 30° C.): 15% | Enzyme assays, % conversion, Tar14, Br^− (Tar14; KBr 100 mM, substrate 0.25 mM, Tar14 5 μM, 30° C., 4 h): 100% | Enzyme assays, % conversion, Tar14, Cl^− (Tar14; NaCl 100 mM, substrate 0.25 mM, Tar14 5 μM, 30° C., 4 h): 100% | Iodination by Tar14 (Tar14; incubated with iodide): No iodinated tryptophan products were detected | Feeding, % incorporation, A1 + A13 domain [3]: <5% | Enzyme assays, % conversion, Tar16 (Tar16): 100% | Production of L-4-Cl-Kyn from L-Trp in one-pot reaction (Tar13 Tar14 Tar16): below 1%

B1: Saccharomonospora sp. CNQ-490 Tar14 (flavin-dependent tryptophan halogenase), wild type, SEQ ID NO: 3 (expressed SEQ ID NO: 4; expressed with cleaved His tag … (protein)
chain: MSVSGSERSAEGNRKKRVVIVGGGTAGWMTASYLTAAFGDRVDLTVVESAQIGTIGVGEATFSDIRHFFEFLRLEESDWMPECNATYKLAVRFENWREPGHHFYHPFEQMSSVDGFPLSDWWLRNPTTSRFDKDSFVMTSLCDAGVSPRYLDGSLIDQDFVEQERDDDSARSTIAEYQGAQFPYAYHFEAHLLAKYLTGYATRRGTRHIVDNVVDVALDERGWISHVRTEEHGDLEADLFVDCTGFRGLLLNKALGEPFVSYQDTLPNDSAVALQVPLDMEREPIRPCTTATAQEAGWIWTIPLISRVGTGYVYASDYTTPEQAERVLRDFVGPAAADVPANHIKMRIGRSRRSWVNNCVGVGLSSGFVEPLESTGIFFIHHAIEQIVKYFPSGGAGDDRLRELYNRSVGHVMDGVREFLVLHYRSAKRADNQYWKDTKTRTVPDSLAERIEFWKHKVPDAETVYPYYHGLPPYSYNCILLGMGGIDVNYSPALDWANEKAALAEFERIRVKAEKLVQELPTQNEYFAAMRAGR
notes: flavin reductase Tar15 and PtdH as helper enzymes
Km [4]: 12.0 ± 1.9 µM

B2: Saccharomonospora sp. CNQ-490 Tar13 (tryptophan 2,3-dioxygenase), wild type, SEQ ID NO: 1 (expressed SEQ ID NO: 2) (Saccharomonospora piscinae) (protein)
chain: MTERTATRTEPAYGEILRLDELLELACVNDEADRALFLSAHQACEIWFAVVLRHLEDVTDALSLDDGATAAELLERLPRIITVIIEHFEVLGTLKPEAFDRIRADLGSSSGFQSVQYREIEYLCGARDTRFLNTAGFRDRDRRRLRERLAKRSLSNVFLEYRGRAGDRDACRISDALHEFDDSVRALRLRHAGIAELFLGSIPGTAGTAGAAYLRRSASRTLFPELFDRRASGTGG
Vmax [5]: 0.061 ± 0.006 µM/s | kcat [5]: 0.03 s⁻¹ and 0.031 ± 0.003 s⁻¹
